Patent publication EP3069727B1, “PHARMACEUTICAL COMPOSITION FOR CANCER PREVENTION AND TREATMENT CONTAINING PEPTIDE ORIGINATED FROM C12ORF59 PROTEIN AS AN ACTIVE INGREDIENT” (Korea Research Institute of Bioscience and Biotechnology, priority 2015, dated 2018)
Residues, ends and D or L forms follow the SMILES beside them.

How the values were obtained:
SW480sub cells = experiment: Invasion assay (Matrigel-coated transwell, collagen type I chemoattractant) with peptide-treated SW480sub cells; format: cell-based; conditions: for invasion reduced compared to the vehicle control: peptide 50 µM
Procedure: SW480sub was subpopulation of SW480 having high in vitro invasion and in vivo metastasis ability. The effect of each peptide on colorectal cancer cell invasion was analyzed using the said SW480sub. SW480sub cells were mixed with each peptide, followed by pre-incubation for 30 minutes.
(§1) Particularly, the porous membrane of 24-well transwell plate (8 µm pore size; Costar, USA) was coated with 100 µℓ of matrigel (BD Biosciences, USA) diluted in serum free medium at the concentration of 250 µg/mℓ, which stood at room temperature for 1 hour for fixing. The lower part of the transwell plate was coated with 100 µℓ of collagen type I (Sigma) at the concentration of 20 µg/mℓ. The said collagen type I was used as a chemoattractant. 1×10^4 cells resuspended in serum free medium were distributed in the upper chamber of the said 24-well transwell plate, followed by culture at 37°C with 5% CO2 for 48 hours, during which the cells were induced to migrate from the upper chamber to the lower chamber. The non-migrated cells were eliminated from the surface of the upper chamber. […] The excessive crystal violet solution was washed off with distilled water. The selected area (×100) was photographed. The number of the cells migrated was counted from 5 different selected areas. Then, mean value and standard error were obtained.

SW480 cells [1] = experiment: Invasion assay with peptide-treated SW480 cells; format: cell-based; conditions: concentration not given
Procedure: as §1
SW480 colorectal cancer cells were treated with peptides originated from C12orf59, and effects of the peptids on invasion of the cells were analyzed.

colorectal cancer cells = experiment: Cellular survival rate of colorectal cancer cells measured by absorbance; format: cell-based; conditions: as in Example <3-2>
Procedure: (§2) Particularly, 100 µℓ of poly-HEMA (Sigma) at the concentration of 12 mg/mℓ was loaded in 96-well plate, which stood in clean bench for 1 day, followed by drying. On the next day, the plate was coated with Poly-HEMA once again. Cells were distributed in the poly-HEMA coated plate by 100 µℓ/well (1×10^4 cells/well). At that time, serum-free medium was used. 6 days later, 10 µℓ of CCK-8 reagent (Dojindo cat. CK04-13) was added to each well, followed by reaction for 3 hours. Then, OD450 was measured.
In particular, a cellular survival rate was measured using absorbance in the same manner as in Example <3-2>.

[2] = system: C8161 (human melanoma) cells; experiment: In vivo experimental metastasis mouse model; parameters: species or system Nude mice (BALB/c-nude); conditions: 200µg/100µℓ PBS intravenously twice per week (total 7 times); 4 weeks; vs PBS
Procedure: In vivo therapeutic efficacy of A_intact peptide was evaluated using experimental metastasis mouse model. The in vivo experimental metastasis model was constructed as described below.
Nude mice (BALB/c-nude, 6 weeks old, female) were obtained from Charles River Japan (Japan). C8161 (human melanoma) cells (8 x 10^5 cells in 100 µℓ PBS per mouse) were injected into the tail vein. Two days later, mice were randomized into control and treatment groups (n=5 per group) . Modified A_intact peptide (200µg/100µℓ PBS) or A_intact-Fc fusion protein (100µg/100µℓ PBS) were intravenously injected into each mouse twice per week (total 7 times). As a negative control, PBS (100µℓ/mouse) was injected. All animals were killed at 4 weeks after injection of cancer cells. Lung and liver were excised and fixed in 10% formalin for 24 h. Metastatic foci on the surface of lung and liver were counted.

SW480 cells [3] = experiment: Cell survivability under anchorage independent condition (poly-HEMA plate, CCK-8, OD450); format: cell-based; conditions: peptide 100 µg/mℓ, 6 days
Procedure: 6 days later, cell survivability was measured by colorimetric technique under the anchorage independent condition.
as §2

[4] = system: C8161 (human melanoma) cell line; experiment: Invasion assay with C8161 cells (Matrigel-coated Transwell); format: cell-based; conditions: 24 h
Procedure: Specifically, C8161 (human melanoma) cell line was cultured in DMEM containing 10% FBS, penicillin-streptomycin, L-glutamine, sodium pyruvate and glucose. C8161 cells (1 x 10^4) in the presence of the peptide were plated in serum-free medium on 24-well Transwell inserts (8 µm pore size; Costar, USA) coated with 25 µg of […] (BD Biosciences, USA). The underside of the insert was coated with 100 µℓ of collagen type I (Sigma) at the concentration of 5 µg/mℓ. […] The number of cells that had invaded was counted in five representative fields per insert. Then, mean value and standard deviation were obtained.

Compound	invasion reduced compared to the vehicle control (SW480sub cells) [%]	invasion of cells reduced by (SW480 cells [1]) [%]	effect on the survival of colorectal cancer cells (colorectal cancer cells)	other results
SWRPQPCCISSCCLT [B_C-term1]	73	45	inhibitory effects on the survival of colorectal cancer cells in a concentration-dependent manner	–
PCCISSCCLT [B_Cen]	33	–	–	–
PCCISSCCLTTDWVH [B_N-term]	–	55	inhibitory effects on the survival of colorectal cancer cells in a concentration-dependent manner	–
CC(=O)N[C@@H](CCC(=O)O)C(=O)N[C@@H](CCC(=O)O)C(=O)N[C@@H](CC(N)=O)C(=O)N[C@@H](CS)C(=O)NCC(=O)N[C@@H](CC(N)=O)C(=O)N1CCC[C@H]1C(=O)N[C@@H](CCC(=O)O)C(=O)N[C@@H](Cc1c[nH]cn1)C(=O)N[C@@H](CS)C(=O)N[C@@H](CC(C)C)C(=O)N[C@H](C(=O)N[C@H](C(=O)N[C@@H](CC(=O)O)C(=O)N[C@@H](Cc1c[nH]c2ccccc12)C(=O)N[C@H](C(=O)N[C@@H](Cc1c[nH]cn1)C(N)=O)C(C)C)[C@@H](C)O)[C@@H](C)O [Modified A_intact peptide] (Ac-EENCGNPEHCLTTDWVH-NH2)	–	–	–	metastasis to the liver (metastatic nodules) [2]: inhibited; metastasis to the lung (metastatic nodules) [2]: inhibited
SWRPQPCCISSCCLTTDWVH [B_intact, fragment of C12orf59 isoform 2 extracellular domain, 20 amino acids]	–	47	–	invasion rate reduced compared to the control (SW480sub cells; peptide 43 µM): 29%; colorectal cancer cell invasion reduced by (SW480sub cells; peptide 100 µg/mℓ, 48 hours): 90%; cell survivability reduced by (SW480 cells [3]): 90%; C8161 invasion reduced by ([4]; 30 µg/mℓ): 48%; C8161 invasion reduced by ([4]; 100 µg/mℓ): 70%
